From publication PMC5237291, “Sigma-2 receptor agonist derivatives of 1-Cyclohexyl-4-[3-(5-methoxy-1,2,3,4-tetrahydronaphthalen-1-yl)propyl]piperazine (PB28) induce cell death via mitochondrial superoxide production and caspase activation in pancreatic cancer” (BMC Cancer, 2017)

System: Panc02 tumors
Test: In vivo tumor growth and survival, Panc02 tumors in C57BL/6 mice
Conditions: Panc02 s.c. in female C57BL/6; i.p. daily for two weeks (gemcitabine once weekly); vehicle mean = 924 mm^3
Protocol: In this pre-clinical model, we utilized the Panc02 cell line, which is weakly immunogenic in C57BL/6 mice and aggressive with a subcutaneous inoculum of 1 × 10^5 cells being lethal within 6–8 weeks. In vivo studies with mice were performed to compare the effect of sigma-2 ligands with gemcitabine. Mice treated with vehicle alone (a mixture of 5% DMSO, 5% EtOH, and 10% Cremophor in H2O) served as the control cohort. Female C57BL/6 mice (10 weeks old, National Cancer Institute Laboratories) were injected in the right flank with 200 μL of a single-cell suspension of Panc02 cells in non-supplemented RPMI medium (1 × 10^6 cells per mouse). Treatment began when the mean tumor diameter was ~ 5 mm. […] Tumors were measured three times weekly in two dimensions with a digital caliper, and tumor volumes were calculated by the standard formula of Tumor Volume = Length x Width^2 × 0.5. All mice were euthanized when tumors reached a diameter of 15 mm or had ulcerated.

Nc1ccn([C@@H]2O[C@H](CO)[C@@H](O)C2(F)F)c(=O)n1 [gemcitabine, Gemcitabine, reference compound]
Mean tumor volume following conclusion of treatment: 395 mm^3
